Tests used:
soybean seeds [1] = assay: Seed germination assay; type: in vivo; conditions: for germination in 24 hours: test compound 10^−7 M in DI-water, 24 hr in dark at room temperature, radicle emergence as indicator, five repeats of 20 seeds
Procedure: Materials were all sterilized before use. An aqueous solution of the test compound (25 mL, 10^−7 M in DI-water) was prepared for a set of five repeat experiments. Five Petri dishes and 100 soybean seeds were used to test one compound. A piece of Whatman filter paper was used to cover the inner side of each Petri dish to allow uniform distribution of testing solution. Twenty soybean seeds were placed on the filter paper area of one Petri dish. 5 mL of the test compound solution was carefully poured in the Petri dish. Control experiments were set up the same way with 20 soybean seeds and 5 mL of DI-water per dish without any compounds. The lid was placed on the Petri dish and was sealed with Para-film. Five dishes with repeat experiments were stacked. One stack of dishes was wrapped twice with aluminum foil to prevent the seeds receiving any light. The stacks were transferred to an incubator maintained at room temperature and the seeds were germinated in dark. After 24 hr, the stacks were pulled out for measurement. The number of germinated seeds was counted and the percent of germination on each dish was calculated. Radicle emergence was used as the germination indicator. The dishes were placed unwrapped at room temperature for one day and the number of germinated seeds was counted to assure seeds were able to germinate and different germination yields were not caused by bad seed quality. Seeds showing above 90% of germination were considered normal. The standard deviation of five repeats was calculated. Test results with 10% or lower standard deviation was considered good. Compounds acting as plant performance enhancers should promote a significant increase in average percentage of germination compared to the control above the standard deviation.

soybean seeds [2] = assay: Plant growth assay (radical length of germinating seed); type: in vivo; conditions: soybean seeds germinated 24 hr with 10^−7 M compound, then additional 40 hr open to light at room temperature
Procedure: Plant growth assay Seeds germinated for 24 hr using the seed germination assay above were left open to light for another 40 hr. The radical length was measured and the percentage of germinating seed with radical length of greater than 1.5 cm was determined.

SMILES | efficacy for enhanced seed germination and radical growth (summary in words) (soybean seeds [1]; conclusion from the germination and plant growth assays) | germination in 24 hours (soybean seeds [1]) [%] | germinating seed with radical length longer than 1.5 cm (soybean seeds [2]) [%]
CO[C@@H]1O[C@H](CO)[C@@H](O)[C@H](O)[C@H]1N [(2R,3S,4R,5R,6R)-5-amino-2-(hydroxymethyl)-6-methoxytetrahydro-2H-pyran-3,4-diol, reference compound] | insignificant efficacy | 53 | 45
CO[C@@H]1O[C@H](CO)[C@@H](O)[C@H](O)[C@H]1NC(=O)/C=C/C=C/c1ccccc1 [Example 1, (2E,4E)-N-((2R,3R,4R,5S,6R)-4,5-dihydroxy-6-(hydroxymethyl)-2-methoxytetrahydro-2H-pyran-3-yl)-5-phenylpenta-2,4-dienamide] | – | 75 | 69
CO[C@@H]1O[C@H](CO)[C@@H](O)[C@H](O)[C@H]1NC(=O)/C=C/c1ccc(C)cc1 [Example 2, (E)-N-((2R,3R,4R,5S,6R)-4,5-dihydroxy-6-(hydroxymethyl)-2-methoxytetrahydro-2H-pyran-3-yl)-3-(p-tolyl)acrylamide] | – | 70 | 66
CO[C@@H]1O[C@H](CO)[C@@H](O)[C@H](O)[C@H]1NC(=O)/C=C/c1cccc(C)c1 [Example 3, (E)-N-((2R,3R,4R,5S,6R)-4,5-dihydroxy-6-(hydroxymethyl)-2-methoxytetrahydro-2H-pyran-3-yl)-3-(m-tolyl)acrylamide] | – | 61 | 56
CO[C@@H]1O[C@H](CO)[C@@H](O)[C@H](O)[C@H]1NC(=O)/C=C/c1cccc(C(F)(F)F)c1 [Example 4, (E)-N-((2R,3R,4R,5S,6R)-4,5-dihydroxy-6-(hydroxymethyl)-2-methoxytetrahydro-2H-pyran-3-yl)-3-(3-(trifluoromethyl)phenyl)acrylamide] | – | 75 | 69
CO[C@@H]1O[C@H](CO)[C@@H](O)[C@H](O)[C@H]1NC(=O)C#Cc1ccccc1 [Example 5, N-((2R,3R,4R,5S,6R)-4,5-dihydroxy-6-(hydroxymethyl)-2-methoxytetrahydro-2H-pyran-3-yl)-3-phenylpropiolamide] | – | 86 | 95
